Biological target: T1, hGluR1 flip (Homo sapiens, UniProt P42261)
T1 construct: expressed in transfected cells; host or cells: CHO-K1
Test: AMPA receptor function-enhancing activity using calcium influx as index
Assay type: cell-based
Conditions: test compound 30 μM with 3 mM glutamic acid; CHO-K1/GluR1 flip/stargazin-expressing cells; 100% = 3 mM glutamic acid + 300 μM cyclothiazide, 0% = 3 mM glutamic acid alone
Outline: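 CHO-K1 cells co-expressing human GluR1 flip and stargazin, loaded with Calcium5 dye with 1.25 mM probenecid. Test compound at 30 μM added with 3 mM glutamate; fluorescence followed 3 min. Activity % scaled between glutamate alone (0%) and glutamate plus 300 μM cyclothiazide (100%).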

T1 sequence (P42261 19-906 isoform P42261-2 limits assumed): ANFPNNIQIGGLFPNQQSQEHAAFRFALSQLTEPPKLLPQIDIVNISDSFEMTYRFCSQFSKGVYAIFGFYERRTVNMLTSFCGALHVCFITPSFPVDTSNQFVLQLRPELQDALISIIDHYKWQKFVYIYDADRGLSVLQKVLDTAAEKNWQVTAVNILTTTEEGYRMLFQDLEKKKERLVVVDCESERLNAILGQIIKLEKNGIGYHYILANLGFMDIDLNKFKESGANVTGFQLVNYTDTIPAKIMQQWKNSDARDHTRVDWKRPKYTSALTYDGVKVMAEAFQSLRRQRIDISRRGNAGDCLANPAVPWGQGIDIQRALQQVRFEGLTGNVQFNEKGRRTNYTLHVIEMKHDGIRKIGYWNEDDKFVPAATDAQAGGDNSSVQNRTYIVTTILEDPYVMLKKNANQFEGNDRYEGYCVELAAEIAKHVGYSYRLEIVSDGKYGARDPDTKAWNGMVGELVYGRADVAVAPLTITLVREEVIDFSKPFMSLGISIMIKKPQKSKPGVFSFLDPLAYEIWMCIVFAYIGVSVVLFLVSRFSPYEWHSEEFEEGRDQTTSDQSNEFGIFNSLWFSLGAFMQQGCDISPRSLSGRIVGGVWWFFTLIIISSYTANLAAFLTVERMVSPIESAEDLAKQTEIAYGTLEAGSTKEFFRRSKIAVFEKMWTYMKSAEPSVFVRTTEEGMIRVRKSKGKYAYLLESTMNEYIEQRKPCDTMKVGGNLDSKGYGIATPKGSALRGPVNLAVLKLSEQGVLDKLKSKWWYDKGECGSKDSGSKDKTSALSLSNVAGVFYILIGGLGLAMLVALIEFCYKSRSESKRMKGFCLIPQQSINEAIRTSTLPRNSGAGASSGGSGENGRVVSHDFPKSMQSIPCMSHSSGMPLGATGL
T1 sequence (Q9Y698 whole entry partner): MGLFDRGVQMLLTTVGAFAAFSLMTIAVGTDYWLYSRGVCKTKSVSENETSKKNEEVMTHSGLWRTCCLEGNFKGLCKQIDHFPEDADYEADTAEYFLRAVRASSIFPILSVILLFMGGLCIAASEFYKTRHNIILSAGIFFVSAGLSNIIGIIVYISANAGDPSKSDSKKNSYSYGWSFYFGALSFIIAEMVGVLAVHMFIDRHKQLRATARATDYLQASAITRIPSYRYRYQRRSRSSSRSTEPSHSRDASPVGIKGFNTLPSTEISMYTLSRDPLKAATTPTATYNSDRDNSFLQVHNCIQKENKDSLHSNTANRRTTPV

Row | SMILES | activation at 30 µM | hGluR1 flip/30 μM (%)
1 | O=C(c1ccc(-c2cccn3c(=O)c(Br)c(C(F)(F)F)nc23)cc1F)N1CCOC(F)(F)C1 [Example 71, 3-bromo-9-(4-((2,2-difluoromorpholin-4-yl)carbonyl)-3-f1uorophenyl)-2-(trifluoromethyl)-4H-pyrido[1,2-a]pyrimidin-4-one] | 72.3% | 
2 | O=C(c1ccc(-c2cccn3c(=O)c(Br)c(C(F)(F)F)nc23)cc1)N1CCOC(C(F)F)C1 (centres unmarked) [Example 103, 3-bromo-9-(4-((2-(difluoromethyl)morpholin-4-yl)carbonyl)phenyl)-2-(trifluoromethyl)-4H-pyrido[1,2-a]pyrimidin-4-one] | 88.6% | 
3 | O=C(c1ccc(-c2cccn3c(=O)cc(C(F)(F)F)nc23)cc1)N1CCC(O)(C(F)(F)F)C1 (centres unmarked) [Example 6, 9-(4-((3-hydroxy-3-(trifluoromethyl)pyrrolidin-1-yl)carbonyl)phenyl)-2 (trifluoromethyl)-4H-pyrido[1,2-a]pyrimidin-4-one] |  | 88.7%
4 | N#CC1CCCN(C(=O)c2ccc(-c3cccn4c(=O)c(Cl)c(C(F)(F)F)nc34)cc2)C1 (centres unmarked) [Example 38, 1-(4-(3-chloro-4-oxo-2-(trifluoromethyl)-4H-pyrido[1,2-a]pyrimidin-9-yl)benzoyl)piperidine-3-carbonitrile] | 99.3% | 
5 | Cc1c(C(F)(F)F)nc2c(-c3ccc(C(=O)N[C@@H]4CCCOC4)cc3)cccn2c1=O [Example 102, 4-(3-methyl-4-oxo-2-(trifluoromethyl)-4H-pyrido[1,2-a]pyrimidin-9-yl)-N-((3R)-tetrahydro-2H-pyran-3-yl)benzamide] | 73.8% | 
6 | Cc1c(C(F)(F)F)nc2c(-c3ccc(C(=O)N4CCO[C@@H](C)C4)cc3)cccn2c1=O [Example 67, 3-methyl-9-(4-(((2S)2-methylmorpholin-4-yl)carbonyl)phenyl)-2-(trifluoromethyl)-4H-pyrido[1,2-a]pyrimidin-4-one] | 73.5% | 
7 | O=C(c1ccc(-c2cccn3c(=O)c(Br)c(C(F)(F)F)nc23)cc1F)N1CCOCC1 [Example 46, 3-bromo-9-(3-fluoro-4-(morpholin-4-ylcarbonyl)phenyl)-2-(trifluoromethyl)-4H-pyrido[1,2-a]pyrimidin-4-one] | 77.3% | 
8 | CN(C(=O)c1ccc(-c2cccn3c(=O)c(Br)c(C(F)(F)F)nc23)cc1F)C1CC1 [Example 94, 4-(3-bromo-4-oxo-2-(trifluoromethyl)-4H-pyrido[1,2-a]pyrimidin-9-yl)-N-cyclopropyl-2-fluoro-N-methylbenzamide] | 94.4% | 
9 | O=C(NCC(F)F)c1ccc(-c2cccn3c(=O)cc(C(F)(F)F)nc23)cc1 [Example 26, N-(2,2-difluoroethyl)-4-(4-oxo-2-(trifluoromethyl)-4H-pyrido[1,2-a]pyrimidin-9-yl)benzamide] | 74.9% | 
10 | O=C(c1ccc(-c2cccn3c(=O)c(Br)c(C(F)(F)F)nc23)cc1F)N1CC(F)(F)C1 [Example 130, 3-bromo-9-(4-((3,3-difluoroazetidin-1-yl)carbonyl)-3-fluorophenyl)-2-(trifluoromethyl)-4H-pyrido[1,2-a]pyrimidin-4-one] | 96% | 
11 | Cc1c(C(F)(F)F)nc2c(-c3ccc(C(=O)N(C)C4CCOCC4)c(F)c3)cccn2c1=O [Example 83, 2-fluoro-N-methyl-4-(3-methyl-4-oxo-2-(trifluoromethyl)-4H-pyrido[1,2-a]pyrimidin-9-yl)-N-(tetrahydro-2H-pyran-4-yl)benzamide] | 103% | 
12 | C[C@@H]1CN(C(=O)c2ccc(-c3cccn4c(=O)c(Br)c(C(F)(F)F)nc34)cc2F)CCO1 [Example 74, 3-bromo-9-(3-fluoro-4-(((2R)-2-methylmorpholin-4-yl)carbonyl)phenyl)-2-(trifluoromethyl)-4H-pyrido[1,2-a]pyrimidin-4-one] | 88.2% | 
13 | O=C(c1ccc(-c2cccn3c(=O)c(Br)c(C(F)(F)F)nc23)cc1)N1CCOC2CC21 (centres unmarked) [Example 127, 3-bromo-9-(4-(2-oxa-5-azabicyclo[4.1.0]hept-5-ylcarbonyl)phenyl)-2-(trifluoromethyl)-4H-pyrido[1,2-a]pyrimidin-4-one] | 74.7% | 
14 | Cc1c(C(F)(F)F)nc2c(-c3ccc(C(=O)N[C@H]4CCOC4)c(F)c3)cccn2c1=O [Example 86, 2-fluoro-4-(3-methyl-4-oxo-2-(trifluoromethyl)-4H-pyrido[1,2-a]pyrimidin-9-yl)-N-((3S)-tetrahydrofuran-3-yl)benzamide] | 103% | 
15 | O=C(c1ccc(-c2cccn3c(=O)c(Br)c(C(F)(F)F)nc23)cc1)N1CCOC(F)(F)C1 [Example 19, 3-bromo-9-(4-((2,2-difluoromorpholin-4-yl)carbonyl)phenyl)-2-(trifluoromethyl)-4H-pyrido[1,2-a]pyrimidin-4-one] | 79.4% | 
16 | CO[C@@H]1CCN(C(=O)c2ccc(-c3cccn4c(=O)c(Br)c(C(F)(F)F)nc34)cc2F)C1 [Example 91, 3-bromo-9-(3-fluoro-4-(((3R)-3-methoxypyrrolidin-1-yl)carbonyl)phenyl)-2-(trifluoromethyl)-4H-pyrido[1,2-a]pyrimidin-4-one] | 80.9% | 
17 | O=C(N[C@H]1CCCOC1)c1ccc(-c2cccn3c(=O)c(Br)c(C(F)(F)F)nc23)cc1F [Example 110, 4-(3-bromo-4-oxo-2-(trifluoromethyl)-4H-pyrido[1,2-a]pyrimidin-9-yl)-2-fluoro-N-((3S)-tetrahydro-2H-pyran-3-yl)benzamide] | 86.8% | 
18 | O=C(N[C@H]1CCCOC1)c1ccc(-c2cccn3c(=O)cc(C(F)(F)F)nc23)cc1 [Example 122, 4-(4-oxo-2-(trifluoromethyl)-4H-pyrido[1,2-a]pyrimidin-9-yl)-N-((3S)-tetrahydro-2H-pyran-3-yl)benzamide] | 71.4% | 
19 | COC1CCN(C(=O)c2ccc(-c3cccn4c(=O)c(Br)c(C(F)(F)F)nc34)cc2F)CC1 [Example 88, 3-bromo-9-(3-fluoro-4-((4-methoxypiperidin-1-yl)carbonyl)phenyl)-2-(trifluoromethyl)-4H-pyrido[1,2-a]pyrimidin-4-one] | 90.3% | 
20 | CCN(CCC#N)C(=O)c1ccc(-c2cccn3c(=O)c(Br)c(C(F)(F)F)nc23)cc1 [Example 25, 4-(3-bromo-4-oxo-2-(trifluoromethyl)-4H-pyrido[1,2-a]pyrimidin-9-yl)-N-(2-cyanoethyl)-N-ethylbenzamide] | 91% | 
21 | Cc1c(C(F)(F)F)nc2c(-c3ccc(C(=O)NC4CCOCC4)c(F)c3)cccn2c1=O [Example 85, 2-fluoro-4-(3-methyl-4-oxo-2-(trifluoromethyl)-4H-pyrido[1,2-a]pyrimidin-9-yl)-N-(tetrahydro-2H-pyran-4-yl)benzamide] | 109% | 
22 | O=C(c1ccc(-c2cccn3c(=O)c(Br)c(C(F)(F)F)nc23)cc1F)N1CCCOCC1 [Example 75, 3-bromo-9-(3-fluoro-4-(1,4-oxazepan-4-ylcarbonyl)phenyl)-2-(trifluoromethyl)-4H-pyrido[1,2-a]pyrimidin-4-one] | 99.1% | 
23 | O=C(c1ccc(-c2cccn3c(=O)cc(C(F)(F)F)nc23)cc1F)N1CCc2cccnc21 [Example 78, 9-(4-(2,3-dihydro-1H-pyrrolo[2,3-b]pyridin-1-ylcarbonyl)-3-fluorophenyl)-2-(trifluoromethyl)-4H-pyrido[1,2-a]pyrimidin-4-one] | 94.2% | 
24 | COCCNC(=O)c1ccc(-c2cccn3c(=O)c(Br)c(C(F)(F)F)nc23)cc1F [Example 72, 4-(3-bromo-4-oxo-2-(trifluoromethyl)-4H-pyrido[1,2-a]pyrimidin-9-yl)-2-fluoro-N-(2-methoxyethyl)benzamide] | 76.4% | 
25 | O=C(c1ccc(-c2cccn3c(=O)c(Br)c(C(F)(F)F)nc23)cc1)N1CCOCC(F)(F)C1 [Example 119, 3-bromo-9-(4-((6,6-difluoro-1,4-oxazepan-4-yl)carbonyl)phenyl)-2-(trifluoromethyl)-4H-pyrido[1,2-a]pyrimidin-4-one] | 71% | 
26 | O=C(c1ccc(-c2cccn3c(=O)c(Cl)c(C(F)(F)F)nc23)cc1F)N1CCCOCC1 [Example 81, 3-chloro-9-(3-fluoro-4-(1,4-oxazepan-4-ylcarbonyl)phenyl)-2-(trifluoromethyl)-4H-pyrido[1,2-a]pyrimidin-4-one] | 95.1% | 

— patent US11407748B2, “Substituted pyrido[1,2-a]pyrimidines and pyrazino[1,2-a]pyrimidines for enhancing AMPA receptor function” (Takeda Pharmaceutical Company Limited, priority 2017, dated 2022)
